Data taken from PMC10046369, “Low-Affinity/High-Selectivity Dopamine Transport Inhibition Sufficient to Rescue Cognitive Functions in the Aging Rat” (Biomolecules, 2023).

What was measured:
Experiment in all cases: biochemical
Design in all cases: KINOMEscan competition binding panel, per cent of control
Conditions in all cases: read-out: %Ctrl @ 2800nM
SGK3 = SGK3 (Homo sapiens, UniProt Q96BR1)
Outline: (§1)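 Competition binding panel (KINOMEscan) across 450 human kinases and disease-relevant mutants, run to the contractor's standard protocol. Values are % control: (test signal − positive control signal)/(negative control signal − positive control signal) × 100, with lower values indicating stronger binding.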

RIOK1 = RIOK1 (Homo sapiens, UniProt Q9BRS2)
Outline: as §1

LIMK2 = LIMK2 (Homo sapiens, UniProt P53671)
Sequence of LIMK2 (P53671 whole entry): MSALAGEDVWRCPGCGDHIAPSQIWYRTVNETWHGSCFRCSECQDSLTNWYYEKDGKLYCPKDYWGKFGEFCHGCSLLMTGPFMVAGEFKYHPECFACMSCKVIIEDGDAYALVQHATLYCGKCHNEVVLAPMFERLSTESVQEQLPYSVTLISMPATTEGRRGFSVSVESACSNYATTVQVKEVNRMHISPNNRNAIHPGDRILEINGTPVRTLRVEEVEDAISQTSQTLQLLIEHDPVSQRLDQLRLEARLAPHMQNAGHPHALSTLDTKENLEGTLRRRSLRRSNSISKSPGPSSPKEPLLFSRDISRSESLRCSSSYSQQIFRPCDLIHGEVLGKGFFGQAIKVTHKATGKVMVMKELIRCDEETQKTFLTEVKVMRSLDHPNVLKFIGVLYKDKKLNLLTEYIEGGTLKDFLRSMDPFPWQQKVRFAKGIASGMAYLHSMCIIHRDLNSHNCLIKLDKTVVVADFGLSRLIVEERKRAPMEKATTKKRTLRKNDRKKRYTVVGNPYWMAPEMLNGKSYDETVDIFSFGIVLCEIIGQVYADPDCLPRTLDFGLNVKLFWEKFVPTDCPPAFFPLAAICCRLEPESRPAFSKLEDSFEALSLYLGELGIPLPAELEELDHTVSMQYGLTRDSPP
Outline: as §1

BMPR2 = BMPR2 (Homo sapiens, UniProt Q13873)
Outline: as §1

CAMK4 = CAMK4 (Homo sapiens, UniProt Q16566)
Outline: as §1

NIK = target: T1, NIK (Homo sapiens, UniProt Q99558)
T1 construct: gene MAP3K14
Outline: as §1

LRRK2(G2019S) = LRRK2(G2019S) (Homo sapiens, UniProt Q5S007, G2019S)
Outline: as §1

EGFR(L861Q) = EGFR(L861Q) (Homo sapiens, UniProt P00533, L861Q)
Outline: as §1

MLK3 = target: T2, MLK3 (Homo sapiens, UniProt Q16584)
T2 construct: gene MAP3K11
T2 sequence (Q16584 whole entry): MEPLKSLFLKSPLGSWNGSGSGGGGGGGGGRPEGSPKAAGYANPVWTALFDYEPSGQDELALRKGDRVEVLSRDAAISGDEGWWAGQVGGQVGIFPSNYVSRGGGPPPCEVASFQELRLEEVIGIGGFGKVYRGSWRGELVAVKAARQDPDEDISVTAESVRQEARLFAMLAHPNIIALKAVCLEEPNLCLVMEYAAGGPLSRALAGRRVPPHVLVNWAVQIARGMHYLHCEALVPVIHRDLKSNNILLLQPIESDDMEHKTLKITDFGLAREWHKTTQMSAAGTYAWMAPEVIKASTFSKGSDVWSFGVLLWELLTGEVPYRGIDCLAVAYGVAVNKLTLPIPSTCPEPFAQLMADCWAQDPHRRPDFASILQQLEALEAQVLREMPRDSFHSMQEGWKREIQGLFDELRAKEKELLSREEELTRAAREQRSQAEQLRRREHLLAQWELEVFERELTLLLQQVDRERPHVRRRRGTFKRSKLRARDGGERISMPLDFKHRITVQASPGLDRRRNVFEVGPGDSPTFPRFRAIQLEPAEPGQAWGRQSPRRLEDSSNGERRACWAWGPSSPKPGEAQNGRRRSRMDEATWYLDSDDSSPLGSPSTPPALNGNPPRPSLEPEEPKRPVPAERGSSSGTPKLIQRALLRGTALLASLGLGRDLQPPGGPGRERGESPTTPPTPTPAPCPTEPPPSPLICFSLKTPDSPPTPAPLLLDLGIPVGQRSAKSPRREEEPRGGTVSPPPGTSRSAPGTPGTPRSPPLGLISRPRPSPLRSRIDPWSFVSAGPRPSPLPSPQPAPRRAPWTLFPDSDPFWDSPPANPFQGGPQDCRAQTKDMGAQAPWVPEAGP
Outline: as §1

TAOK1 = TAOK1 (Homo sapiens, UniProt Q7L7X3)
Outline: as §1

FLT3(K663Q) = FLT3(K663Q) (Homo sapiens, UniProt P36888, K663Q)
Outline: as §1

CSNK1G1 = CSNK1G1 (Homo sapiens, UniProt Q9HCP0)
Outline: as §1

[1] = target: T3, ABL1(F317L)-nonphosphorylated (Homo sapiens, UniProt P00519, F317L)
T3 construct: nonphosphorylated
Outline: as §1

CHEK1 = CHEK1 (Homo sapiens, UniProt O14757)
Outline: as §1

[2] = target: T4, ABL1(Q252H)-nonphosphorylated (Homo sapiens, UniProt P00519, Q252H)
T4 construct: nonphosphorylated
Outline: as §1

MYLK4 = MYLK4 (Homo sapiens, UniProt Q86YV6)
Sequence of MYLK4 (Q86YV6 whole entry): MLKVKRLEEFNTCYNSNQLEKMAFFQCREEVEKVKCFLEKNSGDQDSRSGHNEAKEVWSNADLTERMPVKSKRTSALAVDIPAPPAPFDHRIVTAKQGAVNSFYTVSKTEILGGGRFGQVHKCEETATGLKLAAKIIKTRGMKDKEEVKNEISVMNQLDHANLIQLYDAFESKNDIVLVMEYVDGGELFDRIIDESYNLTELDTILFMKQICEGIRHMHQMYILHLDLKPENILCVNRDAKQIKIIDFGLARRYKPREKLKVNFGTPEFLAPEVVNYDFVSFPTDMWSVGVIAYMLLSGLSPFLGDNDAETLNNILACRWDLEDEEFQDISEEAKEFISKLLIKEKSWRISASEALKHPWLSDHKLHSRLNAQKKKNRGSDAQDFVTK
Outline: as §1

FLT3(D835H) = FLT3(D835H) (Homo sapiens, UniProt P36888, D835H)
Outline: as §1

EPHA3 = EPHA3 (Homo sapiens, UniProt P29320)
Outline: as §1

LIMK1 = LIMK1 (Homo sapiens, UniProt P53667)
Sequence of LIMK1 (P53667 whole entry): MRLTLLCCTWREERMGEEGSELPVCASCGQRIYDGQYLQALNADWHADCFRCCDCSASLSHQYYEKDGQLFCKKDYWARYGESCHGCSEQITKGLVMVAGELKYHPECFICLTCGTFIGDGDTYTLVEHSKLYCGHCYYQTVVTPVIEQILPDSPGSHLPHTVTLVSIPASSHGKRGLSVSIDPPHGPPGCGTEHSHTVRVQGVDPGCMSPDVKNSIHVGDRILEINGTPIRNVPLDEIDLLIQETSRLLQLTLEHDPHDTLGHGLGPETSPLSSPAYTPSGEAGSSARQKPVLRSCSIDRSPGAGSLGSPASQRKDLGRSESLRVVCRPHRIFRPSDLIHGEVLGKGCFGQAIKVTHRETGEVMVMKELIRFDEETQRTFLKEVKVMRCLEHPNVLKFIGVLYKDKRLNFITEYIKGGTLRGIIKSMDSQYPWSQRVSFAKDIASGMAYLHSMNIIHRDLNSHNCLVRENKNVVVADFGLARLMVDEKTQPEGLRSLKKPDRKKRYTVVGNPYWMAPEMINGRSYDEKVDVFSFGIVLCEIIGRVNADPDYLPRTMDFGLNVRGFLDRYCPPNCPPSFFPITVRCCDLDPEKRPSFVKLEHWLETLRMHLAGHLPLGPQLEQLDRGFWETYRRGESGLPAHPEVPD
Outline: as §1

ERBB4 = ERBB4 (Homo sapiens, UniProt Q15303)
Outline: as §1

MTOR = MTOR (Homo sapiens, UniProt P42345)
Outline: as §1

FLT3(ITD) = FLT3(ITD) (Homo sapiens, UniProt P36888, ITD)
Outline: as §1

FES = FES (Homo sapiens, UniProt P07332)
Outline: as §1

p38-beta = target: T5, p38-beta (Homo sapiens, UniProt Q15759)
T5 construct: gene MAPK11
T5 sequence (Q15759 whole entry): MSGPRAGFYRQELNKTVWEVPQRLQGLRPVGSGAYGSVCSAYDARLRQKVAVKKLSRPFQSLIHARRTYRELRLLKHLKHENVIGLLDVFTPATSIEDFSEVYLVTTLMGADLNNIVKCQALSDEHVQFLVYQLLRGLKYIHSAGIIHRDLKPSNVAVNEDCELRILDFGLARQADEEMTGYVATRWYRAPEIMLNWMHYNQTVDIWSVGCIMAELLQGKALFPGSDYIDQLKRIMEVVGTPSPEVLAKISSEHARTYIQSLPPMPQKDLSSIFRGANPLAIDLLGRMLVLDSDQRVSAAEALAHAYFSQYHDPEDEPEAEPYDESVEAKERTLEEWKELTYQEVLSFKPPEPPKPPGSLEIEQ
Outline: as §1

PIK3CA(Q546K) = PIK3CA(Q546K) (Homo sapiens, UniProt P42336, Q546K)
Sequence of PIK3CA(Q546K) (P42336 whole entry Q546K): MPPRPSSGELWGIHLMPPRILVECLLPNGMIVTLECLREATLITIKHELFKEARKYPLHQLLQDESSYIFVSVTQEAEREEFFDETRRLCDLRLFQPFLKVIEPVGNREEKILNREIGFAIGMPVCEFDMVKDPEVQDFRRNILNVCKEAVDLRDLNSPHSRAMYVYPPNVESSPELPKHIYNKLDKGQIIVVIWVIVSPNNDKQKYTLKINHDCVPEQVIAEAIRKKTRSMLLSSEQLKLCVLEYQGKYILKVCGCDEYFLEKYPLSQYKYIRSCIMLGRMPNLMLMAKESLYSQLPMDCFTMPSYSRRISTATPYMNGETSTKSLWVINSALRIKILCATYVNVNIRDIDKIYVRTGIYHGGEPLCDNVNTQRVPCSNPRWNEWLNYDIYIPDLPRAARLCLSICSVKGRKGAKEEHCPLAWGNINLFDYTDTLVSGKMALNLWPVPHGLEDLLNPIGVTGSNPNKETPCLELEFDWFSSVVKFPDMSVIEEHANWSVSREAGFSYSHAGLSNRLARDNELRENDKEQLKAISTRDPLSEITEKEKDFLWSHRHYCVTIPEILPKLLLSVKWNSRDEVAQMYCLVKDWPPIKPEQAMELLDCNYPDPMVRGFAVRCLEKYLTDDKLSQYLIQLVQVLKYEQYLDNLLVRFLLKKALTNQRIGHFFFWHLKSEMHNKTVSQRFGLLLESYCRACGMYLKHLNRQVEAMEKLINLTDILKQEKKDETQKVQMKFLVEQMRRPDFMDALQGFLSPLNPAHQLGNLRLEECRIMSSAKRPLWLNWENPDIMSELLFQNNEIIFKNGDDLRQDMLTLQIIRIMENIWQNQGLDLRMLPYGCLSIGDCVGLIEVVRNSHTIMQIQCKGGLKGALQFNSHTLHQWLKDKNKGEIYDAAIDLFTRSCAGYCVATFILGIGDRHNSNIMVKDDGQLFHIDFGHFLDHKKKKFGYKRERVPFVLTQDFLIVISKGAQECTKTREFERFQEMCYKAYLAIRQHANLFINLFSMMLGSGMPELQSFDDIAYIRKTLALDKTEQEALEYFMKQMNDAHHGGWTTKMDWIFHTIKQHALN
Outline: as §1

S6K1 = target: T6, S6K1 (Homo sapiens, UniProt P23443)
T6 construct: gene RPS6KB1
T6 sequence (P23443 whole entry): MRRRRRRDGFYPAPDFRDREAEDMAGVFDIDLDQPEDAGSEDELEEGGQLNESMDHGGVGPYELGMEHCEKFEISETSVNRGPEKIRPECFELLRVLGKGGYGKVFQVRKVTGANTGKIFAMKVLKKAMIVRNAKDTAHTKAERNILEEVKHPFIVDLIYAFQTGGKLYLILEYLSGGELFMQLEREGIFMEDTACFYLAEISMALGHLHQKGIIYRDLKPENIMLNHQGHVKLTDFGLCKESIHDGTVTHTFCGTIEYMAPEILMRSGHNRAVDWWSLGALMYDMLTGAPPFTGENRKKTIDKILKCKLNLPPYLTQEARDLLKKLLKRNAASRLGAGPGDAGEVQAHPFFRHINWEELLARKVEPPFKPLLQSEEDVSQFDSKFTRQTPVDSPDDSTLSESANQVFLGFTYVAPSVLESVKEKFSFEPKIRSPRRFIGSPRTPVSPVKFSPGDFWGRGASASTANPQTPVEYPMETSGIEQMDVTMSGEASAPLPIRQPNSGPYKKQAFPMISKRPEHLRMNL
Outline: as §1

Sequence of SGK3 (Q96BR1 whole entry): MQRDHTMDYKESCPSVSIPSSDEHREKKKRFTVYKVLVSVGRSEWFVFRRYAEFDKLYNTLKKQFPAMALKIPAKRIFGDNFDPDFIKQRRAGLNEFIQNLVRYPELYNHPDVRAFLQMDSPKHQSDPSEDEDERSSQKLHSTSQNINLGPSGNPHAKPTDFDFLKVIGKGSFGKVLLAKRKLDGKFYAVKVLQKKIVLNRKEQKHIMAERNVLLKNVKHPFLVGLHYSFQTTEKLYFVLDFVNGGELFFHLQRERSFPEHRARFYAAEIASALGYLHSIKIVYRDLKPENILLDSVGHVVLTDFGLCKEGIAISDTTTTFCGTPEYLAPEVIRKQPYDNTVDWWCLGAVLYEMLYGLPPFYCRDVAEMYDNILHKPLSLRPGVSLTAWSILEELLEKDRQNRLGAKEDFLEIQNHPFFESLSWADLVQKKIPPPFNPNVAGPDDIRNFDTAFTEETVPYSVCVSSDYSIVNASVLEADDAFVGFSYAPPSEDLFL

SMILES: [O-][S@@+](Cc1cncs1)C(c1ccccc1)c1ccccc1 [S-CE-123, (S)-5-((Benzhydrylsulfinyl)Methyl)Thiazole]
- remaining binding at 2.8 µM (SGK3): 100%
- remaining binding at 2.8 µM (RIOK1): 77%
- remaining binding at 2.8 µM (LIMK2): 88%
- remaining binding at 2.8 µM (BMPR2): 100%
- remaining binding at 2.8 µM (CAMK4): 91%
- remaining binding at 2.8 µM (NIK): 100%
- remaining binding at 2.8 µM (LRRK2(G2019S)): 96%
- remaining binding at 2.8 µM (EGFR(L861Q)): 98%
- remaining binding at 2.8 µM (MLK3): 100%
- remaining binding at 2.8 µM (TAOK1): 100%
- remaining binding at 2.8 µM (FLT3(K663Q)): 96%
- remaining binding at 2.8 µM (CSNK1G1): 96%
- remaining binding at 2.8 µM [1]: 100%
- remaining binding at 2.8 µM (CHEK1): 89%
- remaining binding at 2.8 µM [2]: 66%
- remaining binding at 2.8 µM (MYLK4): 89%
- remaining binding at 2.8 µM (FLT3(D835H)): 58%
- remaining binding at 2.8 µM (EPHA3): 97%
- remaining binding at 2.8 µM (LIMK1): 98%
- remaining binding at 2.8 µM (ERBB4): 96%
- remaining binding at 2.8 µM (MTOR): 100%
- remaining binding at 2.8 µM (FLT3(ITD)): 100%
- remaining binding at 2.8 µM (FES): 95%
- remaining binding at 2.8 µM (p38-beta): 94%
- remaining binding at 2.8 µM (PIK3CA(Q546K)): 97%
- remaining binding at 2.8 µM (S6K1): 90%
